What was measured:
PEMs = test: Activated PEM phagocytosis toward RBCs in the presence of antibodies/inhibitors against phagocytic receptors; assay type: cell-based, mouse; conditions: antibodies 10 μg/mL; BLT1 5 μM; laminarin 100 μg/mL; heparin 40 U/mL
Method: FIGS. 6A-6D include data related to our investigation of possible phagocytic receptors on macrophages for phagocytosing healthy self-cells. […] PEMs, with or without (ctl.) treatment with LPS, IL-17, IL-6, or PMA, were labeled for cell surface LRP1 and CRT followed by FACS. […] Activated PEM phagocytosis toward RBCs was tested in the presence of antibodies against SR-A, Fc receptor Cd16/32 (10 μg/mL of each), inhibitors against SR-B (BLT1, 5 μM), dectin (laminarin, 100 μg/mL), complement (heparin, 40 U/mL), and antibody against Cd11b (10 μg/mL). […] Data presented in each panel represent at least three independent experiments with n≥4, if applicable.
Ex vivo macrophage phagocytosis: Mouse spleens were harvested and minced in cold HBSS followed by passing through nylon meshes. The spleen cells in suspensions were collected by centrifugation followed by washing. After lysis of RBC, splenocytes were plated in cell culture dishes in DMEM with 10% FBS and cultured for 2 h followed by removal of non-adherent cells. The adherent cells, ˜70% being macrophages as determined by anti-F4/80 staining, were tested for phagocytosis. For phagocytosis of RBC or other tissue cells, targeted cells were labeled with CFSE prior to addition into the macrophage-containing wells. Macrophages and target cells, at a ratio of 1:5-10 for RBC or 1:1-2 for other cells, were co-incubated for 30 min at 37° C. followed by gently washing. Macrophage phagocytosis of target cells was then analyzed by fluorescence microscopy and/or by FACS. […] Alternatively, the freshly isolated splenocytes in suspension were incubated with CFSE-labeled RBC and other phagocytic targets for 30 min at 37° C. Macrophage phagocytosis was then determined by FACS after labeling macrophages with anti-F4/80. To test phagocytosis of apoptotic cells, B16 cells were irradiated by UV for 150 seconds at 50 J/m^2 strength. Apoptosis was analyzed at 2, 4, 6, 8 and 18 h post UV irradiation by labeling of the cells with anti-phosphatidylserine (PS) antibody (data not shown) or FITC-conjugated annexin V (data not shown). Cells that were confirmed to be apoptotic were trypsinized, labeled with CFSE, and then co-incubated with macrophages for 30 min at 37° C. After gentle washing, phagocytosis was analyzed by fluorescence microscopy and/or FACS. To test phagocytosis of bacteria and the fungal product zymosan, AlexaFluor-conjugated E.coli strain […] (2 μl suspension, ˜2 μg) or zymosan bioparticles (1 μl suspension, ˜2 μg) (both from Invitrogen) were incubated with macrophages for 30 min followed by washing and analyses. Similar procedures were performed to test phagocytosis of macrophages from various sources. […]

[1] = test system: SIRPα^−/− and CD47^−/− mice; test: Acute anemia and splenomegaly in mice deficient of CD47-SIRPα-mediated inhibition under inflammatory conditions; assay type: in vivo, mouse; conditions: SIRPα^−/− and CD47^−/− mice; zymosan 3 times every other day; IL-6 2×10 μg/kg i.v.; LPS 0.25 mg/kg i.p.; CFA s.c.
From the text: FIGS. 1A-1K illustrate our assessment of acute anemia in mice deficient of CD47-SIRPα-mediated inhibition under inflammatory conditions. FIG. 1A includes a schematic drawing of a wild type (WT) and targeted allele of SIRPα (“SIRPα”) and data related to the generation of SIRPα “knock out” (KO) mice. […] Western blot (WB) analysis confirmed the depletion of SIRPα (˜120 kDa) protein in bone marrow leukocytes from SIRPα^−/− mice. FIG. 1B includes a photograph of intestinal tissue and a line graph charting the change in body weight of mice in which colitis had been induced by treatment with 1% or 2% DSS. […] FIGS. 1C and 1D include data related to acute anemia and splenomegaly developed in SIRPα^−/− mice with colitis. WT mice and SIRPα^−/− mice treated with DSS (2% DSS for WT and 1% DSS for SIRPα^−/−) for 10 days were analyzed for the presence of […] (FIG. 1C) and the content of hemoglobin in peripheral blood (FIG. 1D). FIG. 1E includes a panel of photomicrographs in which hematoxylin and eosin (H&E) was used to stain sections of spleens from WT and SIRPα^−/− mice treated with 2% and 1% DSS for 10 days. The bar graph of FIG. 1E illustrates the hemoglobin content in the spleens of WT and SIRPα^−/− mice treated with water or DSS. FIG. 1F is a pair of line graphs showing the time course over which anemia developed in SIRPα^−/− mice when colitis was induced with DSS and the levels of IL-17 in the serum over that same period of time. FIG. 1G is a diagram showing that IL-17 neutralization ameliorates anemia and splenomegaly in SIRPα^−/− mice with colitis. An anti-IL-17 antibody (10 μg, i.v.) was given on days 6 and 8 (arrows) during DSS-induction of colitis. FIG. 1H is a diagram showing that IL-17-containing colitic serum induces acute anemia in SIRPα^−/− mice. Serum samples collected from healthy (Ctl.) and colitic WT mice (2% DSS, 10 d) were administered to healthy SIRPα^−/− mice (i.v., 3×, arrows) with or without an anti-IL-17 antibody. FIGS. 1I and 1J are illustrative graphs showing that IL-17 directly induces acute anemia and splenomegaly in SIRPα^−/− mice and Cd47^−/− mice. Healthy mice were given recombinant IL-17 (10 μg/kg, i.v.) on days 1 and 3 (arrows, FIG. 1J); anemia and splenomegaly were analyzed on day 5 (FIG. 1I) or in a time course manner (FIG. 1J). FIG. 1K includes diagrams showing that acute anemia and splenomegaly in SIRPα^−/− and Cd47^−/− mice under zymosan-peritonitis (3×, every other day), IL-6 administration ([…], i.v.), LPS (0.25 mg/kg, i.p.), and CFA (1×, s.c.) administrations. Error bars are ±SEM **P<0.01, ***P<0.001 vs. control or the beginning time point. Data presented in each panel represent at least three independent experiments with n≥4, if applicable.
Hemoglobin assay: To assay blood hemoglobin, 10 μl of whole blood were obtained from the tail vein followed by lysis in 1 ml distilled water. After centrifugation (13,000 rpm, 30 min), the hemoglobin-containing supernatants were collected and measured for the optical density at the wavelength of 540 nm.
Animal inflammation models: To induce peritonitis, mice (6-8 wk, 20-22 g) were intraperitoneally injected with 0.5 mg zymosan A (Sigma) in 0.5 ml sterile PBS followed by euthanasia at 2, 4, 6 and 8 hours. […] The colitic condition was then assessed by observing diarrhea, measuring body weight loss, increases of inflammatory cytokines, the shortage of the large intestine and intestinal tissue analyses (after euthanasia). […]

[2] = test system: splenic macrophages, PEMs and BMDMs; test: Ex vivo macrophage phagocytosis toward RBCs and other self-cells after activation; assay type: cell-based, mouse; conditions: PEM; lack of the CD47-SIRPα-mediated inhibition
Method: FIGS. 3A-3H include data related to our experiments assaying macrophage phagocytosis ex vivo. FIGS. 3A and 3B show macrophage phagocytosis of RBCs. Freshly isolated splenic macrophages (MØ) and peritoneal macrophages (PEM) and in vitro-derived BMDM (bone marrow-derived macrophages) were tested for phagocytosis toward CFSE-labeled Cd47^+ or Cd47^− RBCs. […] FIGS. 3F and 3G illustrate LPS and IL-17-activated PEM phagocytosis toward splenocytes (FIG. 3F), B16, and EL4 (FIG. 3G). Error bars are ±SEM. **P<0.01, ***P<0.001 vs. no treatment controls. […] PEM lavaged without (ctl.) or with Brewer thioglycollate (3%, i.p.) elicitation was tested. Error bars are ±SEM. ***P<0.001 vs. control PEM. Data presented in each panel represent at least three independent experiments with n≥4, if applicable.
FIGS. 4A-4E include data related to our experiments on macrophage phagocytic plasticity. FIG. 4A is a panel of illustrative line graphs showing that IL-10 inhibits macrophage phagocytosis toward “self.” PEMs were treated with LPS and activating cytokines along with various concentrations of IL-10 before testing their ability to phagocytose RBCs. FIG. 4B illustrates the phagocytic plasticity of WT red pulp macrophages. […] Treatments of cultured macrophages with LPS and IL-17 re-elicited their phagocytosis toward RBCs. […] Error bars are ±SEM. ***P<0.001 vs. freshly isolated splenic macrophages. FIG. 4D includes microscopic images of RBC phagocytosis by LPS- and IL-17-treated splenic macrophages. […] WT PEMs treated with LPS or IL-17 were further treated with Cd47^+ RBCs or Cd47-AP (10 min, 37° C.) followed by cell lysis, SIRPα immunoprecipitation, and WB detection of SIRPα phosphorylation (SIRPα^pY) and SHP-1 association. Data presented in each panel represent at least three independent experiments with n≥4, if applicable.
Ex vivo macrophage phagocytosis: Mouse spleens were harvested and minced in cold HBSS followed by passing through nylon meshes. The spleen cells in suspensions were collected by centrifugation followed by washing. After lysis of RBC, splenocytes were plated in cell culture dishes in DMEM with 10% FBS and cultured for 2 h followed by removal of non-adherent cells. The adherent cells, ˜70% being macrophages as determined by anti-F4/80 staining, were tested for phagocytosis. For phagocytosis of RBC or other tissue cells, targeted cells were labeled with CFSE prior to addition into the macrophage-containing wells. Macrophages and target cells, at a ratio of 1:5-10 for RBC or 1:1-2 for other cells, were co-incubated for 30 min at 37° C. followed by gently washing. Macrophage phagocytosis of target cells was then analyzed by fluorescence microscopy and/or by FACS. To better recognize macrophages, macrophages in wells were labeled with an anti-F4/80 or an anti-CD11b antibody. Alternatively, the freshly isolated splenocytes in suspension were incubated with CFSE-labeled RBC and other phagocytic targets for 30 min at 37° C. Macrophage phagocytosis was then determined by FACS after labeling macrophages with anti-F4/80. To test phagocytosis of apoptotic cells, B16 cells were irradiated by UV for 150 seconds at 50 J/m^2 strength. Apoptosis was analyzed at 2, 4, 6, 8 and 18 h post UV irradiation by labeling of the cells with anti-phosphatidylserine (PS) antibody (data not shown) or FITC-conjugated annexin V (data not shown). Cells that were confirmed to be apoptotic were trypsinized, labeled with CFSE, and then co-incubated with macrophages for 30 min at 37° C. After gentle washing, phagocytosis was analyzed by fluorescence microscopy and/or FACS. To test phagocytosis of bacteria and the fungal product zymosan, AlexaFluor-conjugated E.coli strain […] (2 μl suspension, ˜2 μg) or zymosan bioparticles (1 μl suspension, ˜2 μg) (both from Invitrogen) were incubated with macrophages for 30 min followed by washing and analyses. Similar procedures were performed to test phagocytosis of macrophages from various sources. […]

CCCCCCC1CCCC1=NNC(N)=S (centres unmarked) [BLT1]
LPS-induced PEM phagocytosis toward RBCs (PEMs): failed to affect

heparin
LPS-induced PEM phagocytosis toward RBCs (PEMs): failed to affect

laminarin
LPS-induced PEM phagocytosis toward RBCs (PEMs): failed to affect

B1: IL-6: recombinant murine cytokine, PeproTech (protein, UniProt P08505 25-211, looked up)
Interleukin-6: FPTSQVRRGDFTEDTTPNRPVYTTSQVGGLITHVLWEIVEMRKELCNGNSDCMNNDDALAENNLKLPEIQRNDGCYQTGYNQEICLLKISSGLLEYHSYLEYMKNNLKDNKKDKARVLQRDTETLIHIFNQEVKDLHKIVLPTPISNALLTDKLESQKEWLRTKTIQFILKSLEEFLKVTLRSTRQT
anemia and splenomegaly [1]: induced the same result | ability to induce macrophage phagocytosis toward self [2]: have the ability to induce macrophage phagocytosis toward self
